One assay has as its system trk1Δtrk2Δ S. cerevisiae. The experiment in a line: Growth of trk1Δtrk2Δ yeast on normal potassium YPAD agar plates containing AmB. The class given is cell-based, Saccharomyces cerevisiae. Conditions: 125 nM in agar, normal potassium (10 mM). On the procedure: Yeast cell lines and growth conditions. Wild type S. cerevisiae (ATCC 9763), and trk1Δtrk2Δ S. cerevisiae (SGY 1528) were maintained with yeast peptone adenine dextrose (YPAD) growth media consisting of 10 g/L yeast extract, 20 g/L peptone, 20 g/L dextrose, 0.015 g/L adenine hemisulfate salt (final potassium concentration=10 mM). For solid media, 20 g/L agar was added to this same mixture. To culture trk1 Δtrk2Δ S. cerevisiae, additional potassium was added as potassium chloride (100 mM KCl). The media was adjusted to pH 5.0 using citric acid. After autoclave sterilization, dextrose was subsequently added as a sterile 20% w/v solution in water (dextrose solutions were filter-sterilized using a 0.22 μm filter). Liquid cultures were incubated at 30° C. on a rotary shaker (200 rpm). Solid cultures were maintained at 30° C. in an incubator. For solid media containing AmB (AK Scientific), the media was allowed to cool for 15 minutes before addition of AmB at a final concentration of 125 nM. AmB was added to the media as a solution in DMSO. Plates were examined for growth after 24-48 hours of incubation.

In another assay the test system is trk1Δtrk2Δ yeast. The experiment in a line: Functional complementation of a protein with a small molecule assay (rescue broth microdilution). In kind it is cell-based, Saccharomyces cerevisiae. From the text:
(§1) Broth microdilution minimum inhibitory concentration (MIC) assay. The protocol for the MIC broth microdilution assay was adapted from the Clinical and Laboratory Standards Institute document M27-A2 and performed as previously described. Gray, K. C. et. al. Proc. Natl. Acad. Sci. U.S.A. 109, 2234-2239 (2012); Palacios, D. S. et al. J. Am. Chem. Soc. 129, 13804-13805 (2007).
(§2) Functional complementation of a protein with a small molecule assay. The protocol for the rescue broth microdilution assay was conducted as described in the MIC assay above with the following additions: trk1atrk2Δ yeast were grown in high potassium (100 mM) YPAD liquid media overnight and transferred to normal potassium YPAD liquid media containing vehicle or the indicated concentration of AmB.

The test system of another assay is wild type S. cerevisiae. Briefly: Growth of wild type cells treated with AmB. In kind it is cell-based, Saccharomyces cerevisiae.
Excerpt: as §1, §2

A further assay relates to trk1Δtrk2Δ cells. The experiment in a line: 86Rb+ uptake assay. The class given is cell-based, Saccharomyces cerevisiae. Conditions: 3 μM; FIG. 2F. As to the method:
^86Rb^+ uptake assay. The procedure for 86Rb uptake was adapted from Mulet, J. M. et al. Mol. Cell. Biol. 19, 3328-3337 (1999). Overnight yeast cultures were grown as described above. The supernatant was poured off, and the cells were resuspended in sterile water. This wash was repeated two more times. The cells were then resuspended in 40 mL of the potassium starvation/uptake buffer (50 mM succinic acid, 2% glucose, adjusted to pH 5.5 with Tris). After 3 hour incubation in the potassium starvation buffer, cells were centrifuged and washed twice with sterile water. Cells were resuspended in 1 mL of the potassium starvation/uptake buffer. Cell concentration was determined using an INCYTO®; Neubauer disposable hemocytometer, and wild type S. cerevisiae and trk1Δtrk2Δ cells were diluted to the same cell density. 700 μL of the yeast suspension was added to a 1.5 mL Eppendorf tube. After a 5 minute pre-incubation in the potassium starvation/uptake medium, AmB or C35deOAmB was added (final concentration 3 μM) as a DMSO solution. ^86RbCl (1.1 μCi) was then added to the reaction mixtures. Reaction mixtures were vortexed to ensure a homogeneous solution. […] Moist filters were transferred to plastic vials for measuring radioactivity. Radioactivity was monitored using a Perkin Elmer Wizard automatic gamma counter. […]

Assay [1] concerns CuFi-1 epithelial monolayers (CFTR-deficient human lung epithelia). Briefly: Airway surface liquid (ASL) height studies by confocal fluorescence microscopy. The class given is cell-based. As to the method: Human cell lines and growth conditions. NuLi and CuFi-1 cells were cultured at the air-liquid interface as previously described, using a 1:1 mixture of DMEM: Ham's F-12 supplemented with 2% v/v Ultroser G (Crescent Chemical). Zabner, J. et al. Am. J. Physiol. Lung Cell. Mol. Physiol. 284, […]-[…] (2003). The membrane supports used were Millicell 0.4 μm PCF inserts (Millipore PIHP01250) for Ussing chamber studies, Corning Costar 0.4 μm Transwell Clear Polyester Membrane inserts (Corning 3470) for rotational mucus transport studies, and Millicell 1.0 μm PCF inserts (Millipore PIRP15R48) for ASL studies. These membranes were allowed to mature at an air-liquid interface for a minimum of 14 days to reach full differentiation. Airway surface liquid (ASL) height studies. ASL height was studied using an established fluorescent dye assay. Worthington, E. N. et al. Methods Mol. Biol. 742, 77-92 (2011); Myerburg. M. M. et al. Am. J. Respir. Cell. Mol. Biol. 42, 676-684 (2010). Mature, differentiated membranes were grown on Millicell […] polyethylene terephthalate hanging cell culture inserts. Wild type (NuLi) lung epithelia were treated with perfluorocarbon (FC-72) vehicle, and CuFi epithelia were treated with vehicle or 500 nM AmB and incubated for 24 hours at 37° ° C. On the day of imaging. 2.5 μL of a 70 kDa Texas Red-dextran conjugate (Molecular Probes) solution in PBS was added to the apical side of the membranes, followed by 100 μL of FC-770 to prevent evaporation. These were placed on 100 μL of PBS on a 10 mm glass bottom Fluorodish for imaging (World Precision Instruments). Membranes were imaged immediately after dye addition and again at 24 hours to examine dye absorption. Three Z-stack images per membrane in biological n=6 were taken on an Zeiss LSM700 confocal microscope at 40× oil immersion. These images were analyzed using ImageJ to determine the area of fluorescence in the left hand 200-micron width of each image. Images were converted to 8-bit, Gaussian Blur was applied, and made binary. The parameters for Analyze Particles were particles from 1-Infinity μm^2 in size and from 0%-100% circularity.

We go through 1 molecule from US20240277743A1, “RESTORING PHYSIOLOGY WITH SMALL MOLECULE MIMICS OF MISSING PROTEINS” (The Board of Trustees Of The University Of Illinois, priority 2014, published 2024).

`C[C@@H]1[C@H](O)[C@@H](C)/C=C/C=C/C=C/C=C/C=C/C=C/C=C/[C@H](O[C@@H]2O[C@H](C)[C@@H](O)[C@H](N)[C@@H]2O)C[C@@H]2O[C@](O)(C[C@@H](O)C[C@@H](O)[C@H](O)CC[C@@H](O)C[C@@H](O)CC(=O)O[C@H]1C)C[C@H](O)[C@H]2C(=O)O` [AmB, amphotericin B]: the “restoration of growth of the trk1Δtrk2Δ mutant on agar plate” value in the assay on trk1Δtrk2Δ S. cerevisiae is “restored vigorous growth”. Moreover, the “trk1Δtrk2Δ yeast cell growth in broth dilution assay” value with trk1Δtrk2Δ yeast (at or above the minimum inhibitory concentration) is recorded as “no growth”. In the assay on trk1Δtrk2Δ yeast (intermediate concentrations, normal potassium YPAD, FIG. 2D), the “trk1Δtrk2Δ yeast cell growth in broth dilution assay” value is “dose-dependent increase of growth”. Moreover, the “growth stimulatory effects on wild type cells” value in the assay with wild type S. cerevisiae is reported as “no growth stimulatory effects”. For the same molecule, the “86Rb+ uptake in trk1Δtrk2Δ cells” value in the assay with trk1Δtrk2Δ cells was “uptake was restored”. In assay [1] (500 nM), the “apical surface liquid (ASL) volume of CF epithelia” value is “normal ASL volume was restored”. The “ASL height of CuFi-1 epithelia, compound added apically” value in assay [1] (500 nM AmB, 24 hours, FIGS. 5A, 5B) is on record as “normal ASL height was restored”. Also, in assay [1] (CuFi-1 epithelia, FIG. 5C), the “dose dependence of ASL restoration” value is “dose-dependent fashion” and the “optimal dose for ASL restoration” value was 0.5 µM. The “ASL height of CuFi-1 epithelia, compound added to the basolateral surface” value in assay [1] (FIG. 5B) is “no increase in ASL height”.
